Results as given in patent US9862711B2, “Pyrazine derivatives as phosphatidylinositol 3-kinase inhibitors” (NOVARTIS AG, priority 2014, dated 2018).

Experiments:
Type in all cases: biochemical
PI 3-kinase alpha = PI 3-kinase alpha (Homo sapiens (Human), UniProt P42336); experiment: Kinase Glo Luminescent Kinase Assay (Assay A); conditions: 1 μM ATP, read-out: Assay A PI3Kα IC50
Description: (§1) Kinase Glo Luminescent Kinase Assay (Kglo) for PI 3-Kinase Alpha (A), Pb 3-Kinase Beta (B), Vps34 (C), PI 4-Kinase Beta (D)
(§2) The luminescence-based ATP detection reagent KinaseGlo was obtained from Promega, (Cat. No. V6714, Lot No. 236161) through Catalys, Wallisellen, Switzerland. L-alpha-phosphatidylinositol (PI, liver, bovine) was obtained from Avanti Polar Lipid (Cat. No. 840042C, Lot#LPI-274), Phosphatidylinositol-4,5-bisphosphate (PIP(4,5)2) was also obtained from Avanti Polar Lipid (Cat. No. 840046X). L-α-Phosphatidylserine (PS) was obtained from Avanti Polar Lipid (Cat. No. 840032C), n-Octylglucoside from Avanti Polar Lipid (Cat. No. 10634425001). Luminescence is a well established readout to determine ATP concentrations and can thus be used to follow the activity of many kinases regardless of their substrate. The Kinase Glo Luminescent Kinase Assay (Promega, Madison/WI, USA) is a homogeneous HTS method of measuring kinase activity by quantifying the amount of ATP remaining in solution following a kinase reaction.
(§3) 50 nL of compound dilutions were dispensed onto black 384-well low volume Non Binding Styrene (NBS) plates (Costar Cat. No. NBS#3676). L-α-phosphatidylinositol (PI), provided as 10 mg/ml solution in methanol, was transferred into a glass tube and dried under a nitrogen beam. It was then resuspended in 3% OctylGlucoside (1-O-n-octyl-beta-D-glucopyranoside) by vortexing and stored at 4° C. 5 μL of a mix of PI/OctylGlucoside with the PI 3-kinase alpha and PI 3-kinase beta subtypes, or Vps34 or PI 4-kinase beta were added. Kinase reactions were started by the addition of 5 μl of an ATP-mix containing in a final volume 10 μL 10 mM TRIS-HCl pH 7.5, 3 mM MgCl2, 50 mM NaCl, 0.05% CHAPS, 1 mM DTT and 1 μM ATP at room temperature. Reactions were stopped with 10 μl of KinaseGlo and plates were read 10 mins later in a Synergy2 reader using an integration time of 0.1 seconds per well. 2.5 μM of NVP-BGT226 (1-(3-(trifluoromethyl)-4-(piperazin-1-yl)phenyl)-8-(6-methoxypyridin-3-yl)-3-methyl-1H-imidazo[4,5-c]quinolin-2(3H)-one) was added to the assay plates to generate the 100% inhibition of the kinase reaction, and the 0% inhibition was given by the solvent vehicle (90% DMSO in water). (1-(3-(trifluoromethyl)-4-(piperazin-1-yl)phenyl)-8-(6-methoxypyridin-3-yl)-3-methyl-1H-imidazo[4,5-c]quinolin-2(3H)-one) was used as a reference compound and included in all assay plates in the form of 16 dilution points in duplicate.
(§4) IC50 values of the percentage inhibition of each compound at 8 concentrations (10, 3.0, 1.0, 0.3, 0.1, 0.030, 0.010 and 0.003 μM) n=2 were derived by fitting a sigmoidal dose-response curve to a plot of assay readout over inhibitor concentration as described. All fits were performed with the program XLfit4 (ID Business Solutions, Guildford, UK).

PI 3-kinase beta = PI 3-kinase beta (Homo sapiens (Human), UniProt P42338); experiment: Kinase Glo Luminescent Kinase Assay (Assay B); conditions: 1 μM ATP, read-out: Assay B PI3Kβ IC50
Description: as §1, §2, §3, §4

PI 4-kinase beta = PI 4-kinase beta (Homo sapiens (Human), UniProt Q9UBF8); experiment: Kinase Glo Luminescent Kinase Assay (Assay D); conditions: 1 μM ATP, read-out: Assay D PI4Kβ IC50
Description: as §1, §2, §3, §4

PI 3-kinase beta, sequence (P42338 2-1070): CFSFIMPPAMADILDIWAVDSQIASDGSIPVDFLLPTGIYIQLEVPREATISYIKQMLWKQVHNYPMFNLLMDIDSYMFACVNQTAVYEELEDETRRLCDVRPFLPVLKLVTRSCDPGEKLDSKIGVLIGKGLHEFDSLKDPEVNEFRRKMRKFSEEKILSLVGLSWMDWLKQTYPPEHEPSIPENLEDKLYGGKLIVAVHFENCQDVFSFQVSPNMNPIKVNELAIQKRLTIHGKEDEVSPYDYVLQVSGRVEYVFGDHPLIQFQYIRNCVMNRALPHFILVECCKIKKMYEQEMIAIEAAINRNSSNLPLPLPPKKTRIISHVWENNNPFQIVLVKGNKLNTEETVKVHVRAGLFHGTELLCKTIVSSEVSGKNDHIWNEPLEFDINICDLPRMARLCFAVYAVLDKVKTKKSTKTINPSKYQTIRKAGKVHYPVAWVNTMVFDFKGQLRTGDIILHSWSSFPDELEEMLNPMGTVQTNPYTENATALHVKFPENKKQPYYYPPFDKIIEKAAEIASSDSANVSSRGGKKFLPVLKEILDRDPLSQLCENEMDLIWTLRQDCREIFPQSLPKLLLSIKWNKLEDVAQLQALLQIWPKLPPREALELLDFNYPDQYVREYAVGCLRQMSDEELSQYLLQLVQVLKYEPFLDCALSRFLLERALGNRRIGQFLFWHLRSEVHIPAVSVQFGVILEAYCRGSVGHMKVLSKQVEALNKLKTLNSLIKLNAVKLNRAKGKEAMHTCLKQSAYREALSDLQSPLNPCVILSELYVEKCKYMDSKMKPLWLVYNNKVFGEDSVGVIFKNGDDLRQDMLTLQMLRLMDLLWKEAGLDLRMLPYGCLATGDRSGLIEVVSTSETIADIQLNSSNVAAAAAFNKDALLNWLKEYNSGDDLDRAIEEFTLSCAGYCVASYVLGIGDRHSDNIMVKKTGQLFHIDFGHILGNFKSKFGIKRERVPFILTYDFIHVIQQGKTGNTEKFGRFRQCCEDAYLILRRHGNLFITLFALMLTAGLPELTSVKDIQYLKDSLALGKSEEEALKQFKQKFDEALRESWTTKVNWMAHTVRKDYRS
PI 4-kinase beta, sequence (Q9UBF8 whole entry): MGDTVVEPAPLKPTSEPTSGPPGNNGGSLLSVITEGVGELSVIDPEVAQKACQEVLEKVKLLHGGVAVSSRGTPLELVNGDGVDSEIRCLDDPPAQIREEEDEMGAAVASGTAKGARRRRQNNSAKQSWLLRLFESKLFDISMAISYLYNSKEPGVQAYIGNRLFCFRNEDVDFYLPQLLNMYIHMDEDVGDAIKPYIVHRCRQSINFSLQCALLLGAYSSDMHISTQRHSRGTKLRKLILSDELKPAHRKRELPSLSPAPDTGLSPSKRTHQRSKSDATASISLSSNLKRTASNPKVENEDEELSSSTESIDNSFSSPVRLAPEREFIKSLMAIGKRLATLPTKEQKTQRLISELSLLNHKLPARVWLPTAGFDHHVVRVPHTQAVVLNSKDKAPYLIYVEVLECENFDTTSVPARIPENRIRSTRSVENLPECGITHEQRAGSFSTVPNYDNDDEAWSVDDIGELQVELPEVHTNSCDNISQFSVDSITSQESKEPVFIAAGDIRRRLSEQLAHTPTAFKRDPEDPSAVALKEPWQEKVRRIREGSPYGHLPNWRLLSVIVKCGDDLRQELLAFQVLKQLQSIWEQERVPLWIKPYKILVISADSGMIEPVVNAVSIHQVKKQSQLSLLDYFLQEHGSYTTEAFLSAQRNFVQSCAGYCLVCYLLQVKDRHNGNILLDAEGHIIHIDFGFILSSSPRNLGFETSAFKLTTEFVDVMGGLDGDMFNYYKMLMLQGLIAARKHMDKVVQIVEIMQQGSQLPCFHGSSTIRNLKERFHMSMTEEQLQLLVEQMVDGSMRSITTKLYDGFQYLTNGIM
PI 3-kinase alpha, sequence (P42336 21-1068): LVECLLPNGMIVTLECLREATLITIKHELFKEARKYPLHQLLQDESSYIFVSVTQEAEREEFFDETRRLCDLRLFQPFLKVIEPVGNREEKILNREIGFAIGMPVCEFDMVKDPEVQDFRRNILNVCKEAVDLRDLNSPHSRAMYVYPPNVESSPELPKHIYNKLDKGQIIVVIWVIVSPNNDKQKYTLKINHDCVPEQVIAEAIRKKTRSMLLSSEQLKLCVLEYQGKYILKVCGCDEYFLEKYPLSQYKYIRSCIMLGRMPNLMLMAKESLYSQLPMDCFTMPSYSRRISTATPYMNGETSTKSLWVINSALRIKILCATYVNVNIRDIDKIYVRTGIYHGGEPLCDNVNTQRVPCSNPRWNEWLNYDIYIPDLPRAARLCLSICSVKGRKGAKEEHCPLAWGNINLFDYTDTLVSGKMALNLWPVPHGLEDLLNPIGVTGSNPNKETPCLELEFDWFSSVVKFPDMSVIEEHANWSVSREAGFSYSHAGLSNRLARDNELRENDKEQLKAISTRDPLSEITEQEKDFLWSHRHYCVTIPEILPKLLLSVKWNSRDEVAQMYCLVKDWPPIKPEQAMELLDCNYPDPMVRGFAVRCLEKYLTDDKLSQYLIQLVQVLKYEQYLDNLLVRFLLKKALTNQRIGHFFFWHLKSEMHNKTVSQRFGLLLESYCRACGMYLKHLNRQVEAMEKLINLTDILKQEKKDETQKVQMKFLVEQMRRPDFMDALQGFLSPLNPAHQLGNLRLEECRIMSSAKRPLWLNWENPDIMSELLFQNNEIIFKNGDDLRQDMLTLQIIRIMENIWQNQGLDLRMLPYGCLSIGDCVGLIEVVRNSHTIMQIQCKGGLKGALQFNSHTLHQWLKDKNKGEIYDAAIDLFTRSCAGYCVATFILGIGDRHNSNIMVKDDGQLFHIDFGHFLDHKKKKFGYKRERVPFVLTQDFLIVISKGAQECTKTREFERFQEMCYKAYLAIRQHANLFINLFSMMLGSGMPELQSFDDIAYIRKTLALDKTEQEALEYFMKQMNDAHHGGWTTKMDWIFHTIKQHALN

IC50 (PI 3-kinase alpha) [µM]	IC50 (PI 3-kinase beta) [µM]	IC50 (PI 4-kinase beta) [µM]	SMILES
0.05	0.71	> 9.78	Cc1ccc(S(=O)(=O)NCC(C)(C)O)cc1-c1cncc(-c2cn(C)nc2C)n1 [Example 2, 3-[6-(1,3-Dimethyl-1H-pyrazol-4-yl)-pyrazin-2-yl]-N-(2-hydroxy-2-methyl-propyl)-4-methyl-benzenesulfonamide]
0.15	1.12	> 9.1	Cc1ncc(-c2cncc(-c3cc(S(=O)(=O)N[C@H]4CC[C@H](O)CC4)ccc3C)n2)s1 [Example 5, Trans N-(4-Hydroxycyclohexyl)-4-methyl-3-(6-(2-methylthiazol-5-yl)pyrazin-2-yl)benzenesulfonamide]
0.08	1.45	> 9.55	Cc1ccc(S(=O)(=O)NCCC(C)(C)O)cc1-c1cncc(-c2cn(C)nc2C)n1 [Example 3, 3-[6-(1,3-Dimethyl-1H-pyrazol-4-yl)-pyrazin-2-yl]-N-(3-hydroxy-3-methyl-butyl)-4-methyl-benzenesulfonamide]
0.06	0.68	> 9.55	Cc1ccc(S(=O)(=O)NCC(C)(C)CO)cc1-c1cncc(-c2cn(C)nc2C)n1 [Example 8, 3-[6-(1,3-Dimethyl-1H-pyrazol-4-yl)-pyrazin-2-yl]-N-(3-hydroxy-2,2-dimethyl-propyl)-4-methyl-benzenesulfonamide]
0.4	3.93	> 9.1	Cc1ccc(S(=O)(=O)N[C@H]2CC[C@H](O)CC2)cc1-c1cncc(-c2cccnc2)n1 [Example 11, Trans N-(4-Hydroxy-cyclohexyl)-4-methyl-3-(6-pyridin-3-yl-pyrazin-2-yl)-benzenesulfonamide]
0.06	0.68	> 10	Cc1ccc(S(=O)(=O)NCC2(C)COC2)cc1-c1cncc(-c2cn(C)nc2C)n1 [Example 4, Trans 3-[6-(1,3-Dimethyl-1H-pyrazol-4-yl)-pyrazin-2-yl]-4-methyl-N-(3-methyl-oxetan-3-ylmethyl)-benzenesulfonamide]
0.26	> 9.1	> 9.1	Cc1ccc(S(=O)(=O)NCCC(C)(C)O)cc1-c1cncc(-c2cnn(CCN3CCOCC3)c2)n1 [Example 9, N-(3-Hydroxy-3-methyl-butyl)-4-methyl-3-{6-[1-(2-morpholin-4-yl-ethyl)-1H-pyrazol-4-yl]-pyrazin-2-yl}-benzenesulfonamide]
0.19	6.16	> 9.1	Cc1ncc(-c2cncc(-c3cc(S(=O)(=O)NCCCO)ccc3C)n2)s1 [Example 1, N-(3-Hydroxy-propyl)-4-methyl-3-[6-(2-methyl-thiazol-5-yl)-pyrazin-2-yl]-benzenesulfonamide]
0.07	8.5	> 10	Cc1ccc(S(=O)(=O)NCCC(C)(C)O)cc1-c1cncc(-c2cn(CCN3CCOCC3)nc2C)n1 [Example 10, N-(3-Hydroxy-3-methyl-butyl)-4-methyl-3-{6-[3-methyl-1-(2-morpholin-4-yl-ethyl)-1H-pyrazol-4-yl]-pyrazin-2-yl}-benzenesulfonamide]
